Reference: ChEMBL document CHEMBL3885861, “Open TG-GATES”

Species: Rattus norvegicus
Assay: Open TG-GATES - Regimen: Single
Type: toxicity, organism-based, Sprague-Dawley
Parameters: regimen Single, gender Male, age 6 weeks
Conditions: in vivo, po, 0 mg/kg, route gavage, dose level Control; for APTT / Bas / Eos / Fbg / Hb / Ht / Lym / MCH / MCHC / MCV / Mono / Neu / PT / Plat / RBC / Ret / WBC: tissue Blood; for KIDNEY_L / KIDNEY_R / KIDNEY_TOTAL: tissue Kidney; for LIVER: tissue Liver; for A/G / ALP / ALT / AST / BUN / CRE / Ca / Cl / DBIL / GLC / IP / K / LDH / Na / PL / RALB / TBIL / TC / TG / TP / gamma-GTP: tissue Plasma

O=C(OC[C@H]1O[C@@H](OC(=O)c2cc(O)c(O)c(OC(=O)c3cc(O)c(O)c(O)c3)c2)[C@H](OC(=O)c2cc(O)c(O)c(OC(=O)c3cc(O)c(O)c(O)c3)c2)[C@@H](OC(=O)c2cc(O)c(O)c(OC(=O)c3cc(O)c(O)c(O)c3)c2)[C@@H]1OC(=O)c1cc(O)c(O)c(OC(=O)c2cc(O)c(O)c(O)c2)c1)c1cc(O)c(O)c(OC(=O)c2cc(O)c(O)c(O)c2)c1 [TANNIC ACID]
TERMINAL_BW (3 h): 189.9 g
APTT (3 h): 16.1 s
Bas (3 h): 0%
Eos (3 h): 0.6%
Fbg (3 h): 216.2 mg/dL
Hb (3 h): 12.9 g/dL
Ht (3 h): 38.5%
Lym (3 h): 79.4%
MCH (3 h): 22.6 pg
MCHC (3 h): 33.6%
MCV (3 h): 67.3 fL
Mono (3 h): 5%
Neu (3 h): 15.2%
PT (3 h): 11.7 s
Plat (3 h): 106.7 x10_4/uL
RBC (3 h): 573 x10_4/ul
Ret (3 h): 10.3%
WBC (3 h): 111 x10_2/uL
KIDNEY_L (3 h): 0.9 g
KIDNEY_R (3 h): 0.9 g
KIDNEY_TOTAL (3 h): 1.8 g
LIVER (3 h): 9.5 g
A/G (3 h): 2.1
ALP (3 h): 747.6 IU/L
ALT (3 h): 34.4 IU/L
AST (3 h): 68 IU/L
BUN (3 h): 17 mg/dL
CRE (3 h): 0.4 mg/dL
Ca (3 h): 11 mg/dL
Cl (3 h): 103.2 meq/L
DBIL (3 h): 0.016 mg/dL
GLC (3 h): 194.4 mg/dL
IP (3 h): 10.3 mg/dL
K (3 h): 4.8 meq/L
LDH (3 h): 74.4 IU/L
Na (3 h): 139.4 meq/L
PL (3 h): 141.4 mg/dL
RALB (3 h): 3.6 g/dL
TBIL (3 h): 0.5 mg/dL
TC (3 h): 74.8 mg/dL
TG (3 h): 70.6 mg/dL
TP (3 h): 5.4 g/dL
gamma-GTP (3 h): 1.4 IU/L
TERMINAL_BW (6 h): 186.3 g
APTT (6 h): 15.9 s
Bas (6 h): 0%
Eos (6 h): 0.8%
Fbg (6 h): 227 mg/dL
Hb (6 h): 13.1 g/dL
Ht (6 h): 39.1%
Lym (6 h): 75.2%
MCH (6 h): 22.1 pg
MCHC (6 h): 33.6%
MCV (6 h): 65.6 fL
Mono (6 h): 7.8%
Neu (6 h): 16.4%
PT (6 h): 12.1 s
Plat (6 h): 117.4 x10_4/uL
RBC (6 h): 596 x10_4/ul
Ret (6 h): 10.1%
WBC (6 h): 109.6 x10_2/uL
KIDNEY_L (6 h): 0.9 g
KIDNEY_R (6 h): 0.9 g
KIDNEY_TOTAL (6 h): 1.8 g
LIVER (6 h): 8.6 g
A/G (6 h): 2
ALP (6 h): 831.4 IU/L
ALT (6 h): 34.4 IU/L
AST (6 h): 61.8 IU/L
BUN (6 h): 11.2 mg/dL
CRE (6 h): 0.5 mg/dL
Ca (6 h): 10.8 mg/dL
Cl (6 h): 105.2 meq/L
DBIL (6 h): 0.028 mg/dL
GLC (6 h): 188 mg/dL
IP (6 h): 10.1 mg/dL
K (6 h): 4.7 meq/L
LDH (6 h): 83 IU/L
Na (6 h): 139.4 meq/L
PL (6 h): 131.8 mg/dL
RALB (6 h): 3.6 g/dL
TBIL (6 h): 0.4 mg/dL
TC (6 h): 79.2 mg/dL
TG (6 h): 40.6 mg/dL
TP (6 h): 5.4 g/dL
gamma-GTP (6 h): 2.2 IU/L
TERMINAL_BW (9 h): 184.6 g
APTT (9 h): 16.7 s
Bas (9 h): 0%
Eos (9 h): 1.2%
Fbg (9 h): 213 mg/dL
Hb (9 h): 12.9 g/dL
Ht (9 h): 38.4%
Lym (9 h): 76.8%
MCH (9 h): 22.2 pg
MCHC (9 h): 33.6%
MCV (9 h): 65.9 fL
Mono (9 h): 8%
Neu (9 h): 14.4%
PT (9 h): 12.1 s
Plat (9 h): 123.3 x10_4/uL
RBC (9 h): 583.4 x10_4/ul
Ret (9 h): 10.2%
WBC (9 h): 92.1 x10_2/uL
KIDNEY_L (9 h): 0.9 g
KIDNEY_R (9 h): 0.9 g
KIDNEY_TOTAL (9 h): 1.7 g
LIVER (9 h): 7.7 g
A/G (9 h): 1.9
ALP (9 h): 669.8 IU/L
ALT (9 h): 34.4 IU/L
AST (9 h): 60 IU/L
BUN (9 h): 12.8 mg/dL
CRE (9 h): 0.4 mg/dL
Ca (9 h): 10.5 mg/dL
Cl (9 h): 105.4 meq/L
DBIL (9 h): 0.062 mg/dL
GLC (9 h): 195.8 mg/dL
IP (9 h): 10.8 mg/dL
K (9 h): 4.9 meq/L
LDH (9 h): 72.2 IU/L
Na (9 h): 137 meq/L
PL (9 h): 138.6 mg/dL
RALB (9 h): 3.6 g/dL
TBIL (9 h): 0.4 mg/dL
TC (9 h): 81.4 mg/dL
TG (9 h): 35.2 mg/dL
TP (9 h): 5.5 g/dL
gamma-GTP (9 h): 2.6 IU/L
TERMINAL_BW (24 h): 197.9 g
APTT (24 h): 16.7 s
Bas (24 h): 0%
Eos (24 h): 1.2%
Fbg (24 h): 218.4 mg/dL
Hb (24 h): 12.5 g/dL
Ht (24 h): 37.6%
Lym (24 h): 79.6%
MCH (24 h): 22 pg
MCHC (24 h): 33.3%
MCV (24 h): 66.1 fL
Mono (24 h): 6%
Neu (24 h): 13.6%
PT (24 h): 11.8 s
Plat (24 h): 110.9 x10_4/uL
RBC (24 h): 568.6 x10_4/ul
Ret (24 h): 9.9%
WBC (24 h): 98.7 x10_2/uL
KIDNEY_L (24 h): 0.9 g
KIDNEY_R (24 h): 0.9 g
KIDNEY_TOTAL (24 h): 1.8 g
LIVER (24 h): 9.4 g
A/G (24 h): 2.1
ALP (24 h): 821.8 IU/L
ALT (24 h): 41 IU/L
AST (24 h): 66.6 IU/L
BUN (24 h): 18.2 mg/dL
CRE (24 h): 0.5 mg/dL
Ca (24 h): 10.8 mg/dL
Cl (24 h): 103.8 meq/L
DBIL (24 h): 0.004 mg/dL
GLC (24 h): 190.6 mg/dL
IP (24 h): 8.7 mg/dL
K (24 h): 4.7 meq/L
LDH (24 h): 97 IU/L
Na (24 h): 138.2 meq/L
PL (24 h): 144.2 mg/dL
RALB (24 h): 3.7 g/dL
TBIL (24 h): 0.4 mg/dL
TC (24 h): 80.6 mg/dL
TG (24 h): 77.2 mg/dL
TP (24 h): 5.5 g/dL
gamma-GTP (24 h): 1.4 IU/L
